The subject of series [1] is E. coli BW25113, E. coli BW25113-mcr-1, E. coli BW25113-pmrBR93P. Kind of series: Intracellular colistin content (HPLC-MS/MS). The format is cell-based. The following applies: colistin 0.5 × MIC with β,β-Dim at the highest tested concentration; 30 min. The protocol:
(§1) Overnight cultures E. coli BW25113, E. coli BW25113-mcr-1, and E. coli 1 BW25113-pmrBR93P were diluted to 10^8 CFU/mL and then co-incubated with colistin (0.5 × MIC) in the presence of β,β-Dim (0–4 μg/mL) for 30 min at 37 °C. The cultures were centrifuged and resuspended in 30% methanol. Bacteria were disrupted by sonication and centrifugation, supernatants were diluted in 20% acetonitrile, and intracellular colistin was quantified via HPLC-MS/MS (TQ-XS, Waters, Milford, MA, USA). Analyses were performed on a CORTECS Shield RP C18 column (Waters, Milford, MA, USA) at 40 °C, with a flow rate of 0.4 mL/min and an injection volume of 5 μL. The mobile phases consisted of solvent A (0.5% formic acid and acetonitrile in water) and solvent B (0.5% formic acid in water). Colistin was detected in positive ESI mode with ion transitions […] and m/z 386.0 > 101.0. […] Mobile phases included solvent A (acetonitrile) and solvent B (water). β,β-Dim was detected in the negative electrospray ionization (ESI) mode with ion transitions m/z 369.1 > 269.0 and m/z 369.1 > 241.0.

Series [2] relates to K. pneumoniae (including mcr-1, mcr-8, mcr-9, pmrA/B, phoP, and mgrB). The experiment in a line: Checkerboard assay, colistin-resistant K. pneumoniae (summary). The format is cell-based. To be noted: with β,β-Dim. The protocol:
(§2) The FICI of β,β-Dim–colistin combination was determined by a checkerboard assay. Briefly, two-fold serial dilutions of β,β-Dim and colistin were prepared in a 96-well plate. After incubation at 37 °C for 18 h with bacterial suspension (10^6 CFU/mL), OD600 values were measured. FICI = (MICβ,β-Dim in combination/MICβ,β-Dim) + (MICcolistin in combination/MICcolistin). The synergistic effect of β,β-Dim with other antibiotics was measured in the same way. Synergy was considered to be an FICI ≤ 0.5.

In series [3] the test system is K. pneumoniae 667. Kind of series: Murine systemic (abdominal) infection model. It counts as in vivo. The following applies: mice. The protocol: Mice were randomly assigned to five groups (n = 10) and infected intraperitoneally with K. pneumoniae 667 (8 × 10^6 CFUs). One hour post-infection, treatments were administered intraperitoneally: PBS, β,β-Dim (2 mg/kg), colistin (0.2 mg/kg), or β,β-Dim combined with colistin (2 + 0.2 mg/kg). Survival was continuously monitored. Upon death, the heart, liver, spleen, lungs, and kidney were immediately collected. At five days post-infection, surviving mice were euthanized, and the same organs were harvested. Half of each organ was weighed, homogenized, diluted, and plated on LA plates for bacterial colony enumeration. The remaining tissue samples were used for histopathological analysis.

For series [4], the system named is E. coli (including mcr-1, mcr-3, and pmrA/B). The experiment in a line: Checkerboard assay, colistin-resistant E. coli (summary). The format is cell-based. The following applies: with β,β-Dim. The protocol: as §2
The nature of series [5]: Isothermal titration calorimetry (ITC). The format is binding. To be noted: 25 °C, β,β-Dim vs CL. The protocol:
An isothermal titration calorimetry (ITC) assay was used to assess the affinity between β,β-Dim and PE, PG, and CL using NANO ITC (TA, New Castle, DE, USA). β,β-Dim (0.01 mM) was loaded into the sample cell and titrated with 20 injections of 2 μL membrane components (0.2 mM) at 120 s intervals. The assay was performed at 25 °C with a stirring rate of 350 rpm. Data were analyzed using the independent binding model to calculate the dissociation constant (KD), stoichiometric ratio (n), enthalpy change (ΔH), and entropy change (ΔS).
A general note: In ITC the heat of successive injections is recorded.

The test system of series [6] is S. aureus ATCC 29213. Kind of series: Membrane permeability (PI). To be noted: β,β-Dim 0–32 µg/mL, 1 h. The format is cell-based. The protocol:
The S. aureus ATCC 29213 bacterial suspension (OD600 = 0.5) was incubated with fluorescent probe propidium iodide (PI, Cat No. C1008S, Beyotime, Shanghai, China, final concentration 10 µM) for 30 min. Then, β,β-Dim (0–32 µg/mL) was added to the PI-labeled suspension in a black 96-well plate and incubated for 1 h. Fluorescence intensity was measured at an excitation/emission wavelength of 535/615 nm. The cytoplasmic membrane permeability of E. coli BW25113, E. coli BW25113-mcr-1, and E. coli BW25113-pmrBR93P induced by β,β-Dim was assessed by preparing spheroplasts.

The conditions of series [7]: cited from earlier work.
Series [8] relates to S. aureus ATCC 29213. The experiment in a line: Effect of membrane components on antibacterial activity. It counts as cell-based. The protocol:
The effects of membrane components on the antibacterial activity of β,β-Dim were evaluated using the checkerboard method by exogenous addition of phosphatidylethanolamine (PE), phosphatidylglycerol (PG), and cardiolipin (CL). The same procedure was followed with pre-addition of the respective components to CAMHB to explore their impact on the β,β-Dim–colistin combination in E. coli.

For series [9], the system named is S. aureus ATCC 29213. The experiment in a line: Membrane potential, proton gradient and PMF. It counts as cell-based.
The nature of series [10]: Cytotoxicity (CCK-8). It counts as cell-based. To be noted: human, HK-2 cells and HepG2 cells; HK-2 and HepG2, 24 h; selection criterion. The protocol: Toxicity assessment was performed by using sheep blood cells, human renal proximal tubular epithelial HK-2, and human hepatocarcinoma HepG2. Briefly, 8% erythrocyte suspensions were incubated with the test compounds (0–250 µM) for 1 h at 37 °C. After centrifugation, supernatants were transferred to a 96-well plate, and absorbance was measured at 570 nm.
The HepG2 and HK-2 cells (10^4 cells/well) were cultured in DMEM medium containing 10% fetal bovine serum (FBS) and then placed in a 5% CO2 incubator for 24 h. The culture medium was replaced with fresh DMEM medium containing the compounds (0–250 µM), followed by a further 24 h incubation. Subsequently, 10 µL of CCK-8 was added and incubated for 1 h, and OD450nm values were measured.Hemolysis% = [OD570nm(drug) − OD570nm(blank)]/[OD570nm(TritonX−100) − OD570nm(blank)] × 100%Cell viability% = [OD450nm(drug) − OD450nm(blank)]/[OD450nm(negative) − OD450nm(blank)] × 100%

The conditions of series [11]: rats; cited from earlier work.
Series [12] has as its system E. coli BW25113, E. coli BW25113-mcr-1, and E. coli BW25113-pmrBR93P. Kind of series: Intracellular β,β-Dim content (HPLC-MS/MS). The format is cell-based. To be noted: β,β-Dim 16 μg/mL with colistin 0–1 × MIC; three E. coli strains. The protocol:
as §1

For colistin, the intracellular colistin levels entry in [1] is on record as “exceeding 0.6 µg per 10^8 CFUs”. The “enhancement of colistin activity (MIC reduction)” value in [2] is 8–1024 fold. Further, the survival rate in [3] (day 5 post-infection, single i.p. β,β-Dim 2 mg/kg, colistin 0.2 mg/kg) stood at 20%. In addition, the “histopathological analysis (tissue damage)” value in series [3] (heart, liver, spleen, lung, kidney) is listed as “partially alleviated these lesions”. For the same molecule, the “improvement of colistin efficacy (MIC reduction)” value in [4] is 4–32 fold.

On to `CC(C)=CC[C@H](OC(=O)C=C(C)C)C1=CC(=O)c2c(O)ccc(O)c2C1=O` [β,β-Dim, β,β-dimethylacrylalkannin], for which, in [5], the Kd (in general, the equilibrium constant for the complex coming apart) was determined as 12.4 µM. For the same molecule, in series [6], the “membrane permeability (PI fluorescence intensity)” value is given as “increased membrane permeability in a concentration-dependent manner”. For the same molecule, the lipophilicity result in series [7] is “high lipophilicity”. Also, the “antibacterial activity with exogenous PE, PG, and CL” value in series [8] is “attenuated the antibacterial activity”. The “increase of MIC by CL” value in series [8] (CL 40 μM) worked out at 4 fold. The “membrane potential, proton gradient, PMF” value in series [9] is “increased membrane potential in S. aureus ATCC 29213, reduced the proton gradient, and dissipated the PMF”. Besides, in [10], the IC50 (in general, the concentration at which inhibition is half-maximal) at 24 h was over 10 µM. For the same molecule, in series [11], the maximum tolerable dose result is listed as “exceeds 10 g/kg” and the “no-observed-adverse-effect level (NOAEL)” value is on record as 10 mg/kg. Besides, the “intracellular β,β-Dim accumulation” value in series [12] is “approximately 60 ng per 10^8 CFUs”.
